Test [1] addresses Mas receptor. Particulars: Santos et al., PNAS 2003; cited from earlier work.
In test [2] the test system is aorta rings of Mas−/− mice. As to the kind of experiment: Vasorelaxation in precontracted aorta rings of mice with genetic deletion of the Mas receptor (Mas-/-). In kind it is cell-based, mice (C57/BI-6 and FVB/N). Particulars: both lineages C57/BI-6 and FVB/N, precontracted with fenilefrine 0.1 μM. Here is the method: (§1) This example describes the vasodilating effect of Ala^1-Ang-(1-7), independently of the Mas receptor, on aorta rings of mice with genetic deletion of the Mas receptor (Mas−/−) and wild-type mice (Mas+/+) from two different lineages, C57/BI-6 and FVB/N.
(§2) The original rings of the descending thoracic aorta (2 mm), free from adipose tissue and connective tissue, were incubated in gasified solution (95% O2 and 5% CO2) of Krebs-Henseleit (mmol/L): NaCl 110.8, KCl 5.9, NaHCO3 25.0, MgSO4 1.07, CaCl2 2.49, NaH2PO4 2.33 and glucose 11.51, under a temperature of 37° C. and a 0.5 g tension, being equilibrated for 1 hour. The functional presence of endothelium was tested by its relaxing capacity produced by acetylcholine [ACh] (10 μM) on vessels precontracted with fenilefrine (0.3 μM). Only the vessels showing relaxation above 70% of extended contraction produced by fenilefrine were taken into account. […]
(§3) The aorta rings of mice Mas−/− and Mas+/+ from both lineages (C57/BI-6 and FVB/N) were precontracted to achieve the same tension level (approximately a 1.0 g tension) at a submaximum concentration of fenilefrine (0.1 μM). […] The vasodilating effects of Ala^1-Ang-(1-7) and Ang-(1-7) were expressed as a percentage of relaxation relative to the maximum contraction induced by fenilefrine. […]

In test [3] the test system is aorta rings of Mas+/+ mice. Nature of the test: Vasorelaxation in phenylephrine-precontracted aorta rings of wild-type (Mas+/+) mice. It counts as cell-based, mice (C57/BI-6 and FVB/N). The settings on record: both lineages C57/BI-6 and FVB/N, precontracted with fenilefrine 0.1 μM. Here is the method:
as §1, §2, §3

The subject of test [4] is aorta rings in absence of functional endothelium. As to the kind of experiment: Vasorelaxation in aorta rings without functional endothelium. It counts as cell-based, mice (C57/BI-6 and FVB/N). The settings on record: vessels not presenting functional endothelium (Mas+/+ and Mas−/−, C57/BI-6 and FVB/N). The protocol: This example describes the endothelium-dependence of the Ala^1-Ang-(1-7) vasorelaxing activity.
as §2, with “μM). In accordance with experimental protocols for its absence, the endothelium was removed with a slight friction on the vessel internal surface.” for “μM).”, “relaxation by acetylcholine” for “relaxation”
The Ala^1-Ang-(1-7) vasorelaxing activity was measured in vessels (Mas+/+ and Mas−/−, of lineages C57/BI-6 and FVB/N) in the presence or absence of precontracted functional endothelium (with approximately a 1.0 g tension) and a submaximum concentration of fenilefrine (0.1 μM). […] The vasodilating effects of Ala^1-Ang-(1-7) and Ang-(1-7) were expressed as a relaxation percentage relative to the maximum contraction induced by fenilefrine. […]

Broadly, the Kd is a measure of binding affinity in units of concentration. As for “Asp^1-Arg^2-Val^3-Tyr^4-Ile^5-His^6-Pro^7 [Ang-(1-7)]”, in test [1], the Kd is 0.33 nM. Also, the vasodilating response entry in test [2] was “absence”. The “vasorelaxation (relaxation relative to maximum contraction induced by fenilefrine)” value in test [3] is listed as “produced vasorelaxation”.

Regarding “Ala^1-Arg^2-Val^3-Tyr^4-Ile^5-His^6-Pro^7 [Ala^1-Ang-(1-7)]”, in test [4], the vasodilating effect result is listed as “abolished”. In addition, the vasodilating response entry in test [2] was “totally preserved”. The “vasorelaxation (relaxation relative to maximum contraction induced by fenilefrine)” value in test [3] is reported as “produced vasorelaxation”.
